59 molecules from PubChem BioAssay AID2127 (Sanford-Burnham Center for Chemical Genomics, 2009) can be followed below.

Structures are written as SMILES. Calls of active or inactive are those of the source.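 How the source made its calls: active means half-maximal inhibitory concentration below a set limit; inactive means the rest.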 A value given as a limit tells only on which side of the number the result lay.

This test deals with E3 ubiquitin-protein ligase SIAH1 (Homo sapiens) (UniProt Q8IUQ4). Description: displacement of labeled plectin from Siah-1 – biochemical, fluorescence polarization, fluorescein-plectin, artefact control for Siah-1 antagonist project, dose response (AID 2127). Conditions: Siah-1/fluorescein-plectin binding.
Take `COCCOC(=O)c1sc(=S)n(CCOC)c1N`: the concentration for half-maximal inhibition (IC50) was 15.3 µM.

Regarding `COc1ccc(C(C(=O)NCc2ccccc2)N(Cc2ccco2)C(=O)c2cnccn2)cc1` (centres undefined), the IC50 was > 200 µM (inactive). Consider `O=C(N/N=C/c1cccc(Br)c1)c1ccc(Br)cc1`, for which the IC50 was > 200 µM (inactive). `O=C(Nc1ccc(Cl)cc1)OCc1cn(-c2ccccc2)nn1`: the IC50 was > 200 µM (inactive). Regarding `Cc1cc(C)n2ncc(C(=O)Nc3ccc4c(c3)OCO4)c2n1`, the IC50 is > 200 µM (inactive). For the molecule `c1ccc(C(c2ccccc2)N2CCN(C(c3ccccn3)c3nnnn3C3CCCC3)CC2)cc1` (centres undefined), the IC50 is > 200 µM (inactive). Then `Cc1ccc(CNc2ccc(O)cc2)cc1`, with > 200 µM (inactive); and `CCOc1cc(/C=C(\C#N)C(=O)Nc2ccccc2C(=O)O)ccc1OC(=O)c1ccc(C)cc1`, with > 200 µM (inactive). For `C=CCn1c(NS(=O)(=O)c2ccccc2)c(S(=O)(=O)c2ccc(C)cc2)c2nc3ccccc3nc21`, the IC50 is > 200 µM (inactive).

As to `Nc1c(C(=O)NCc2ccco2)c2nc3ccccc3nc2n1CCc1ccccc1`, the IC50 was > 200 µM (inactive). On to `N#C/C(=C\c1c(F)cccc1Cl)C(=O)NC1CC1`, for which the IC50 is > 200 µM (inactive).

In the case of `COC(=O)c1cccc(Cn2c(Cl)c(/C=N/NC(=O)c3ccccc3Cl)sc2=O)c1`, the IC50 was > 200 µM (inactive). Consider `COC(=O)C1CC(=O)N(c2ccc(OCc3ccccc3Cl)cc2)C1` (centres undefined), for which the IC50 was > 200 µM (inactive). Turning to `Cc1c(C(=O)O)sc2nc(CSc3ncc(C(F)(F)F)cc3Cl)[nH]c(=O)c12`, the IC50 was > 200 µM (inactive). The result for `O=S(=O)(O)c1cc(O)c2c(O)c(N=Nc3cc(Cl)ccc3O)c(S(=O)(=O)O)cc2c1` reads > 200 µM (inactive); that for `CC(=O)Nc1ccc(N=Cc2c(O)c(C(=O)Nc3ccccc3)cc3ccccc23)cc1`, 4.98 µM; that for `N#CC1C=Cc2ccccc2N1C(=O)c1ccccc1` (centres undefined), > 200 µM (inactive). Consider `CCOC(=O)c1c(C)[nH]c2c1-c1ccccc1C(=O)C2=O`, for which the IC50 is > 200 µM (inactive). The result for `NS(=O)(=O)c1ccc(NC(=O)c2cccc(N3C(=O)c4ccccc4C3=O)c2)cc1` reads > 200 µM (inactive); that for `CC(=O)c1ccc(S(=O)(=O)Nc2ccc(-c3ccc4nnc(C)n4n3)cc2)cc1`, > 200 µM (inactive); that for `CC1(C)Cc2c(sc(/N=C/N3CCCCCC3)c2C#N)C(C)(C)N1`, > 200 µM (inactive). Consider `CSc1n[nH]c(NCc2ccc(Cl)cc2)n1`, for which the IC50 was > 200 µM (inactive). With `CCn1c(O)c(C=Nc2ccc(N3CCOCC3)cc2)c(=O)n(CC)c1=S`, the IC50 is 13.9 µM. On to `CCOC(=O)C1=C(C)N=c2s/c(=C\c3ccc(OCC(=O)O)cc3)c(=O)n2C1c1ccc(Cl)cc1` (centres undefined), for which the IC50 is > 200 µM (inactive). The result for `CC(=O)c1ccc(NC(=O)CC2Nc3cccc4cccc(c34)NC2=O)cc1` (centres undefined) reads > 200 µM (inactive); that for `Cc1ccc(C(=O)NC2CC3CCCC(C2)N3C(=O)NC2CCCCC2)cc1` (centres undefined), > 200 µM (inactive). For `N#Cc1c(NC(=O)c2ccc(Br)o2)n(-c2ccccc2)c2nc3ccccc3nc12`, the IC50 is > 200 µM (inactive). The result for `O=c1[nH]c(-c2ccc(F)cc2)nc2c1sc(=S)n2-c1ccccc1` reads > 200 µM (inactive); that for `CCN(CC)CCOC(=O)c1ccc(N/C=C(/C#N)c2nc(-c3ccc(OC)c(OC)c3)cs2)cc1`, > 200 µM (inactive). Turning to `O=C(NCc1c(F)cccc1F)c1cc(COc2c(F)cccc2F)on1`, the IC50 was > 200 µM (inactive). As for `O=c1[nH]c2ccc(S(=O)(=O)N3CCCCC3)cc2s1`, the IC50 was > 200 µM (inactive). For `COc1cc(CNc2ccc(O)cc2)cc(Br)c1OCc1ccccc1F`, the IC50 was > 200 µM (inactive). As to `CCCCN(Cc1cc2cc(OC)ccc2[nH]c1=O)S(=O)(=O)c1ccc(C)cc1`, the IC50 was > 200 µM (inactive). Regarding `CC(C)COc1ccc(-c2nn(-c3ccccc3)cc2/C=C2/SC(=S)N(CC(=O)O)C2=O)cc1`, the IC50 was > 200 µM (inactive). Take `CCCCn1c(NC(=O)c2ccco2)c(S(=O)(=O)c2ccc(C)cc2)c2nc3ccccc3nc21`: the IC50 was > 200 µM (inactive).

Take `O=C(Nc1ccc(S(=O)(=O)N2CCOCC2)cc1)c1ccc(=O)[nH]c1`: the IC50 was > 200 µM (inactive).

In the case of `O=C(O)CCCCN1C(=O)/C(=C\c2ccc(OCc3ccccc3)c(OCc3ccccc3)c2)SC1=S`, the IC50 is > 200 µM (inactive). Turning to `COCCCn1c(N)c(C(=O)NCc2ccco2)c2nc3ccccc3nc21`, the IC50 was > 200 µM (inactive). Turning to `C[C@]12CCC3C(CC=C4C[C@@H](O)CC[C@@]43C)C1CCC2[C@]1(C)CCC(=O)O1` (some centres undefined), the IC50 is > 200 µM (inactive). As for `COc1cccc(CCC(=O)N(C)C2CCCN(Cc3ccccc3F)C2)c1` (centres undefined), the IC50 was > 200 µM (inactive).

As to `CN1/C(=C\C=C\C2=[N+](C)c3ccc4ccccc4c3C2(C)C)C(C)(C)c2ccccc21`, the IC50 is > 200 µM (inactive). Regarding `O=C(Nc1nc(-c2cc3ccccc3oc2=O)cs1)c1ccco1`, the IC50 was > 200 µM (inactive). Consider `CCCCNc1c2c3c(cccc3n(C)c1=O)C(=O)c1ccccc1-2`, for which the IC50 was > 200 µM (inactive).

As to `CC12CCC(C(=O)NCc3ccc(Cl)cc3)(OC1=O)C2(C)C` (centres undefined), the IC50 was > 200 µM (inactive). `O=C(/C=C/c1ccco1)OCc1nnc(-c2ccccc2)o1`: the IC50 is > 200 µM (inactive). `O=C(Nc1cc([N+](=O)[O-])ccc1N1CCOCC1)c1cccs1`: the IC50 was > 200 µM (inactive). The result for `CCCCNc1nnc(Cc2ccc(Cl)cc2)c(=O)[nH]1` reads > 200 µM (inactive); that for `COC/C=C/C1=CC2=CC(=O)C(C)(OC(=O)c3ccco3)C(=O)C2=CO1` (centres undefined), > 200 µM (inactive); that for `Cc1ccc(NC(=O)CCC(=O)NNC(=O)c2ccccc2[N+](=O)[O-])c(C)c1`, > 200 µM (inactive). For the molecule `CN(C)c1cccc2c(C=C(C#N)C#N)ccc(N(C)C)c12`, the IC50 was > 200 µM (inactive). The result for `O=C(O)CCCNc1cc(N2CCN(C(=O)c3ccco3)CC2)c2noc3c2c1C(=O)c1ccccc1-3` reads 10.9 µM. The result for `COC(=O)c1cc(NC(=O)c2ccccc2)c(=O)oc1/C=C/Nc1ccc(Oc2ccccc2)cc1` reads > 200 µM (inactive); that for `CC1(C)OC(C)(C)/C(=C/Nc2ccc(O)cc2)C1=O`, > 200 µM (inactive); that for `CCOC(=O)/C(C#N)=c1/s/c(=C2\C=Cc3ccccc3N2CC)c(=O)n1CC`, > 200 µM (inactive). On to `COc1cc(/C=C(\C#N)c2nc3ccccc3[nH]2)ccc1OC(=O)c1ccco1`, for which the IC50 is > 200 µM (inactive). In the case of `O=S(=O)(Nc1c(S(=O)(=O)c2ccccc2)c2nc3ccccc3nc2n1C1CCCCC1)c1ccccc1`, the IC50 is > 200 µM (inactive).

With `Oc1ccc(N=Cc2ccc(OCc3ccccc3)cc2)cc1`, the IC50 is > 200 µM (inactive).

Regarding `Cc1ccc(S(=O)(=O)N2CCC(=O)N(C(COCc3cccc(C)c3)Cc3ccccc3)CC2)cc1` (centres undefined), the IC50 was > 200 µM (inactive). As for `Nc1ccc(S(=O)(=O)Nc2ccc(S(N)(=O)=O)cc2)cc1`, the IC50 is > 200 µM (inactive).
